In one test the target is BRD4 domain 1 (Homo sapiens, UniProt O60885). Kind of test: Kd determination of inhibitors binding to BRD4 domain 1 (Epic label-free platform). The following applies: direct binding to immobilized BRD4 domain 1; tripling dilution series from 20µM; about 1hr equilibrium; rounded to whole number; read-out: Epic Kd BRD41. The protocol:
(§1) Kd Determination of Inhibitors Binding to BRD4 Domain 1 and Domain 2
(§2) The binding of small molecule inhibitors to either BRD4 domain 1 or domain 2 were determined using the Epic, high-throughput, label-free platform (Corning, Lowell, MA). The Epic instrument incorporates an evanescent waveguide sensor within each well of its proprietary 384-well microplates. Direct binding of inhibitors to BRD4 immobilized onto the microplate well surface can be detected by exposing the waveguide to a broadband light source. The resulting resonant wavelength shift (measured in picometers (pm)) is proportional to the mass bound to the surface. Epic biochemical plates (Corning, Lowell, MA) were activated by adding 15 µL/well of 200 mM EDC and 50 mM Sulfo-NHS (Pierce Thermo Scientific, Rockford, IL) and incubated for 60 minutes at room temperature. Plates were washed three times with MilliQ water and dried by centrifugation (1 minute at 400 rpm). BRD4 immobilization was accomplished by resuspending the protein at a concentration of 150 µg/mL in 20 mM HEPES (pH 7) and adding 10 µL/well. […] Compound/inhibitor binding was determined by calculating difference between the baseline (first read) and second read. The resulting binding response was fitted to a single site binding isotherm in order to determine an equilibrium dissociation constant (Kd).

Another test addresses BRD4 domain 2 (Homo sapiens, UniProt O60885). Kind of test: Kd determination of inhibitors binding to BRD4 domain 2 (Epic label-free platform). The following applies: direct binding to immobilized BRD4 domain 2; tripling dilution series from 20µM; about 1hr equilibrium; rounded to whole number. The protocol: as §1, §2

By Kd is commonly meant the free concentration of one partner at which half of the binding sites on the other are occupied at equilibrium, for simple one-to-one binding. `Cc1noc(C)c1-c1cc(S(=O)(=O)N[C@@H]2CCC[C@H]2N)c2cccnc2c1` (stereo in doubt) [Compound 46, N-((1R,2R)-2-aminocyclopentyl)-7-(3,5-dimethylisoxazol-4-yl)quinoline-5-sulfonamide]: the Kd on BRD4 domain 1 was found to be 6.42 µM; on BRD4 domain 2, 7.83 µM.

Turning to `Cc1noc(C)c1-c1cc(S(=O)(=O)NC2CCCC2)c2ccc(C(F)F)nc2c1` [Compound 2, N-cyclopentyl-2-(difluoromethyl)-7 - (3,5-dimethylisoxazol-4-yl)quinoline-5-sulfonamide], the Kd on BRD4 domain 1 was 3.38 µM; at BRD4 domain 2, 1.32 µM.

As to `Cc1noc(C)c1-c1cc(S(=O)(=O)NC2CCCC2)c2ccc(Cl)nc2c1` [Compound 3, 2-chloro-N-cyclopentyl-7-(3,5-dimethylisoxazol-4-yl)quinoline-5-sulfonamide], the values for the Kd at BRD4 domain 1 and on BRD4 domain 2 were 1.25 µM and 2.97 µM, respectively.

Take `Cc1noc(C)c1-c1cc(S(=O)(=O)NC2CCCC2)c2ccc(C3CC3)nc2c1` [Compound 4, N-cyclopentyl-2-cyclopropyl-7-(3,5-dimethylisoxazol-4-yl)quinoline-5-sulfonamide]: the values for the Kd at BRD4 domain 1 and on BRD4 domain 2 were 1.44 µM and 3.5 µM, respectively.

As for `Cc1noc(C)c1-c1cc(S(=O)(=O)NC2CCCC2)c2ccc(NCC3CC3)nc2c1` [Compound 5, N-cyclopentyl-2-((cyclopropylmethyl)amino)-7-(3,5-dimethylisoxazol-4-yl)quinoline-5-sulfonamide], the Kd at BRD4 domain 1 came to 1.06 µM; at BRD4 domain 2, 1.46 µM.

For `Cc1noc(C)c1-c1cc(S(=O)(=O)NC2CCCC2)c2ccc(OCC3CC3)nc2c1` [Compound 6, N-cyclopentyl-2-(cyclopropylmethoxy) -7-(3,5-dimethylisoxazol-4-yl)quinoline-5-sulfonamide], the values for the dissociation constant (Kd) at BRD4 domain 1 and on BRD4 domain 2 were 2.11 µM and 2.04 µM, respectively.

For `Cc1noc(C)c1-c1cc(S(=O)(=O)NC2CC2)c2cccnc2c1` [Compound 8, N-cyclopropyl-7-(3,5-dimethylisoxazol-4-yl)quinoline-5-sulfonamide], the Kd was determined as 3.95 µM on BRD4 domain 1 and 2.25 µM at BRD4 domain 2.

Take `Cc1noc(C)c1-c1cc(S(=O)(=O)N(C)C2CC2)c2cccnc2c1` [Compound 9, N-cyclopropyl-7-(3,5-dimethylisoxazol-4-yl)-N-methylquinoline-5-sulfonamide]: the Kd at BRD4 domain 1 was > 20 µM; on BRD4 domain 2, 12.5 µM.

On to `Cc1noc(C)c1-c1cc(S(=O)(=O)NC2CCC2)c2cccnc2c1` [Compound 10, N-cyclobutyl-7-(3,5-dimethylisoxazol-4-yl)quinoline-5-sulfonamide], for which the results for the Kd at BRD4 domain 1 and at BRD4 domain 2 were 3.19 µM and 2.68 µM, respectively.

Consider `Cc1noc(C)c1-c1cc(S(=O)(=O)NCC2CC(F)(F)C2)c2cccnc2c1` [Compound 11, N-((3,3-difluorocyclobutyl)methyl)-7-(3,5-dimethylisoxazol-4-yl)quinoline-5-sulfonamide], for which the equilibrium dissociation constant (Kd) at BRD4 domain 1 was 12.8 µM; at BRD4 domain 2, > 20 µM.

As for `Cc1noc(C)c1-c1cc(S(=O)(=O)N[C@@H]2C[C@H]2c2ccccc2)c2cccnc2c1` [Compound 12, 7-(3,5-dimethylisoxazol-4-yl)-N-((1R,2S)-2-phenylcyclopropyl)qui noline-5-sulfonamide], the results for the Kd on BRD4 domain 1 and on BRD4 domain 2 were 15.8 µM and > 20 µM, respectively.

Regarding `Cc1noc(C)c1-c1cc(S(=O)(=O)N[C@@H]2CCC[C@@H]2c2ccc(F)cc2)c2cccnc2c1` [Compound 13, 7-(3,5-dimethylisoxazol-4-yl)-N-((1R,2R)-2-(4-fluorophenyl)cyclopentyl)quinoline-5-sulfonamide], the Kd at BRD4 domain 1 was 10 µM; at BRD4 domain 2, 12.4 µM.

Regarding `Cc1noc(C)c1-c1cc(S(=O)(=O)NCC2CC2)c2cccnc2c1` [Compound 15, N-(cyclopropylmethyl)-7-(3,5-dimethylisoxazol-4-yl)quinoline-5-sulfonamide], the figures for the Kd on BRD4 domain 1 and at BRD4 domain 2 were 9.43 µM and 5.9 µM, respectively.

As to `COc1ccc2c(S(=O)(=O)NC3CCCC3)cc(-c3c(C)noc3C)cc2n1` [Compound 16, N-cyclopentyl-7-(3,5-dimethylisoxazol-4-yl)-2-methoxyquinoline-5 - sulfonamide], the Kd is 3.37 µM on BRD4 domain 1 and 6.3 µM on BRD4 domain 2.

For the compound `Cc1noc(C)c1-c1cc(S(=O)(=O)NC2CCCC2)c2ccc(N)nc2c1` [Compound 17, 2-amino-N-cyclopentyl-7-(3,5-dimethylisoxazol-4-yl)quinoline-5-sulfonamide], the Kd on BRD4 domain 1 is 0.885 µM; at BRD4 domain 2, 1.11 µM.

Take `Cc1noc(C)c1-c1cc(S(=O)(=O)NC2CCCC2)c2cccnc2c1Cl` [Compound 18, 8-chloro-N-cyclopentyl-7-(3,5-dimethylisoxazol-4-yl)quinoline-5-sulfonamide]: the Kd at BRD4 domain 1 was 9.15 µM; at BRD4 domain 2 it was 4.26 µM.

As for `Cc1noc(C)c1-c1cc(S(=O)(=O)N[C@H]2CC[C@@H](O)C2)c2cccnc2c1` [Compound 19, 7-(3,5-dimethylisoxazol-4-yl)-N-((1S,3R)-3-hydroxycyclopentyl)q uinoline-5-sulfonamide], the Kd was found to be 16.6 µM on BRD4 domain 1 and 7.72 µM at BRD4 domain 2.

As to `Cc1noc(C)c1-c1cc(S(=O)(=O)N[C@@H]2CCC[C@H](O)C2)c2cccnc2c1` [Compound 20, 7-(3,5-dimethylisoxazol-4-yl)-N-((1R,3S)-3-hydroxycyclohexyl)qu inoline-5-sulfonamide], the Kd turned out to be 5.75 µM at BRD4 domain 1 and 4.79 µM at BRD4 domain 2.

For the compound `Cc1noc(C)c1-c1cc(S(=O)(=O)N[C@H]2CC[C@H](O)CC2)c2cccnc2c1` [Compound 21, 7-(3,5-dimethylisoxazol-4-yl)-N-((1r,4r)-4-hydroxycyclohexyl)qu inoline-5-sulfonamide], the dissociation constant Kd at BRD4 domain 1 amounted to 10.4 µM; on BRD4 domain 2, 17.3 µM.

With `Cc1noc(C)c1-c1cc(S(=O)(=O)NC2CCCC2)c2cc(Br)c(=O)[nH]c2c1` [Compound 22, 3-bromo-N-cyclopentyl-7-(3,5-dimethylisoxazol-4-yl)-2-oxo-1,2-dihydroquinoline-5-sulfonamide], the figures for the Kd at BRD4 domain 1 and on BRD4 domain 2 were 1.02 µM and 0.501 µM, respectively.

Regarding `Cc1noc(C)c1-c1cc(S(=O)(=O)N[C@@H]2CCC[C@@H]2O)c2cccnc2c1` [Compound 23, 7-(3,5-dimethylisoxazol-4-yl)-N-((1R,2S)-2-hydroxycyclopentyl)q uinoline-5-sulfonamide], the Kd stood at 19.5 µM on BRD4 domain 1 and 16.7 µM at BRD4 domain 2.

Turning to `Cc1noc(C)c1-c1cc(S(=O)(=O)NC2(C)CCCC2)c2cccnc2c1` [Compound 24, 7-(3,5-dimethylisoxazol-4-yl)-N-(1-methylcyclopentyl)qui noline-5-sulfonamide], the values for the Kd on BRD4 domain 1 and on BRD4 domain 2 were 3.55 µM and 2.11 µM, respectively.

With `Cc1noc(C)c1-c1cc(S(=O)(=O)N[C@H]2C[C@@H](NC(=O)OC(C)(C)C)C2)c2cccnc2c1` [Compound 25, tert-butyl ((1s,3s)-3-(7-(3,5-dimethylisoxazol-4-yl)quinoline-5-sulfonamido)cyclobutyl)carbamate], the results for the equilibrium dissociation constant (Kd) on BRD4 domain 1 and on BRD4 domain 2 were 16.2 µM and > 20 µM, respectively.

Take `Cc1noc(C)c1-c1cc(S(=O)(=O)N[C@@H]2CCC[C@H]2O)c2cccnc2c1` [Compound 26, 7-(3,5-dimethylisoxazol-4-yl)-N-((1R,2R)-2-hydroxycyclopentyl)q uinoline-5-sulfonamide]: the Kd on BRD4 domain 1 came out at 4.09 µM; at BRD4 domain 2, 3.55 µM.

On to `Cc1noc(C)c1-c1cc(S(=O)(=O)N[C@H]2CCC[C@H]2O)c2cccnc2c1` [Compound 27, 7-(3,5-dimethylisoxazol-4-yl)-N-((1S,2R)-2-hydroxycyclopentyl)q uinoline-5-sulfonamide], for which the values for the Kd on BRD4 domain 1 and on BRD4 domain 2 were 12.5 µM and 6.8 µM, respectively.

For the compound `Cc1noc(C)c1-c1cc(S(=O)(=O)NC2CCCC2)c2cc(-c3ccc(F)cc3)c(=O)[nH]c2c1` [Compound 28, N-cyclopentyl-7-(3,5-dimethylisoxazol-4-yl)-3-(4-fluorophenyl)-2-oxo-1,2-dihydroquinoline-5-sulfonamide], the Kd on BRD4 domain 1 was determined as 0.348 µM; at BRD4 domain 2, 0.555 µM.

As for `Cc1noc(C)c1-c1cc(S(=O)(=O)NC2CCCC2)c2cc(-c3cccnc3)c(=O)[nH]c2c1` [Compound 29, N-cyclopentyl-7-(3,5-dimethylisoxazol-4-yl)-2-oxo-3-(pyridin-3-yl)-1,2-dihydroquinoline-5-sulfonamide], the dissociation constant Kd was found to be 0.253 µM on BRD4 domain 1 and 0.241 µM at BRD4 domain 2.

On to `Cc1noc(C)c1-c1cc(S(=O)(=O)NC2CCCC2)c2cc(-c3cnc(C)n3C)c(=O)[nH]c2c1` [Compound 30, N-cyclopentyl-3-(1,2-dimethyl-1H-imidazol-5-yl)-7-(3,5-dimethylisoxazol-4-yl)-2-oxo-1,2-dihydroquinoline-5-sulfonamide], for which the Kd on BRD4 domain 1 is 6.4 µM; at BRD4 domain 2, 1.7 µM.

On to `Cc1noc(C)c1-c1cc(S(=O)(=O)NC2CCCC2)c2cc(C#N)c(=O)[nH]c2c1` [Compound 31, 3-cyano-N-cyclopentyl-7-(3,5-dimethylisoxazol-4-yl)-2-oxo-1,2-dihydroquinoline-5-sulfonamide], for which the Kd at BRD4 domain 1 was found to be 0.867 µM; on BRD4 domain 2, 0.634 µM.
